Data: publication PMC12332667, “Role of Structural Modifications in Peptidomimetic Compounds as Potential Antimicrobial Agents against Staphylococcus aureus and Streptococcus pyogenes: Balancing Bioavailability, Safety, and Antimicrobial Activity” (ACS Omega, 2025)
≈ marks a conversion by molar mass, not a printed value.

What was measured:
S. aureus ATCC 43300 = assay: MIC/MBC broth microdilution, S. aureus; format: cell-based, Staphylococcus aureus; conditions: S. aureus
S. pyogenes ATCC 19615 = assay: MIC/MBC broth microdilution, S. pyogenes; format: cell-based, Streptococcus pyogenes; conditions: S. pyogenes
Procedure, shortened: (§1)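 BHI broth microdilution (NCCLS); ~10^5 CFU/mL; 37 °C, 18 h. MIC = lowest conc., no visible growth (≥90% vs untreated). MBC = ≤3 colonies, ≥99.9% kill. Water/DMSO/EtOH solvent controls; technical triplicate ×3 biological repeats.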

S. cohnii c.i. = assay: MIC/MBC broth microdilution, S. cohnii; format: cell-based, Staphylococcus cohnii
Procedure, shortened: as §1

E. faecalis c.i. = assay: MIC/MBC broth microdilution, E. faecalis; format: cell-based, Enterococcus faecalis
Procedure, shortened: as §1

S. schleiferi c.i. = assay: MIC/MBC broth microdilution, S. schleiferi; format: cell-based, Staphylococcus schleiferi
Procedure, shortened: as §1

S. agalactiae ATCC 27956 = assay: MIC/MBC broth microdilution, S. agalactiae; format: cell-based, Streptococcus agalactiae; conditions: S. agalactiae
Procedure, shortened: as §1

S. mutans c.i. = assay: MIC/MBC broth microdilution, S. mutans; format: cell-based, Streptococcus mutans
Procedure, shortened: as §1

E. coli ATCC 25922 = assay: MIC/MBC broth microdilution, E. coli; format: cell-based, Escherichia coli
Procedure, shortened: as §1

P. vulgaris ATCC 6896 = assay: MIC/MBC broth microdilution, P. vulgaris; format: cell-based, Proteus vulgaris
Procedure, shortened: as §1

[1] = test system: K. pneumoniae ATCC 700603; assay: MIC/MBC broth microdilution, K. pneumoniae; format: cell-based
Procedure, shortened: as §1

P. aeruginosa ATCC 10145 = assay: MIC/MBC broth microdilution, P. aeruginosa; format: cell-based
Procedure, shortened: as §1

[2] = Hydrophobicity by reverse-phase chromatography; format: physicochemical; conditions: acetonitrile content in the mobile phase at the retention time
Text: Reverse-phase chromatography was employed to assess the hydrophobicity characteristics of the peptidomimetics. Hydrophobicity was quantified by determining the acetonitrile content in the mobile phase at the retention time of a peptidyl derivative (Table S2). The least hydrophobic compound (40% acetonitrile) was A-198, which aligns with the calculations of hydrophobicity by SwissADME and pkCSM (Table ). Next in the hydrophobicity sequence were A-197, A-220, A-219, A-174, and A-221, eluting with 42.5-43.9% of acetonitrile. Then there were followed by […], and A-179, with the acetonitrile percentage of 44.8-49.8. The compounds A-176, A-20, A-152, A-134, and A-210 needed over 50% of acetonitrile to be eluted from the column.

[3] = test system: immortalized human keratinocytes (HaCaT); assay: LDH cytotoxicity test, keratinocytes; format: cell-based; conditions: 48 h
Procedure, shortened: (§2)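 Cytotoxicity as LDH release after 48 h serum-free treatment (50, 100, 150 μg/mL peptidomimetics) of 46BR.1N fibroblasts or HaCaT keratinocytes seeded at 5000 per well. Absorbance 450 nm; untreated set as 0% and Triton X-100 1% as maximal release; Mann–Whitney U test, p ≤ 0.05.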

fibroblasts (46BR.1N) = assay: LDH cytotoxicity test, fibroblasts; format: cell-based; conditions: 48 h
Procedure, shortened: as §2

[4] = test system: immortalized human HaCaT keratinocytes; assay: XTT cell proliferation assay, keratinocytes; format: cell-based; conditions: XTT, 48 and 72 h, 0.01–150 μg/mL
Procedure, shortened: (§3)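 Proliferation was read as XTT absorbance at 490 nm after 4 h of reagent incubation, following 48 or 72 h of peptide exposure in serum-free HG-DMEM (37 °C, 5% CO2). The 72 h arm included a half-medium change with second peptide dose at 48 h. Significance by Mann–Whitney U, p ≤ 0.05.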

[5] = test system: human dermal fibroblast cell line (46BR.1N); assay: XTT cell proliferation assay, fibroblasts; format: cell-based; conditions: XTT, 48 and 72 h, 0.01–150 μg/mL
Procedure, shortened: as §3

CC(C)C[C@H](NC(=O)[C@H](CCCNC(=N)N)NC(=O)OCc1ccccc1)C(=O)N[C@H](CN)C(C)C [Compound A-197]
MIC (S. aureus ATCC 43300; H2O): > 512 µg/mL
MIC (S. aureus ATCC 43300; water additive DMSO): > 512 µg/mL
MIC (S. aureus ATCC 43300; water additive EtOH): > 512 µg/mL
MIC (S. pyogenes ATCC 19615; H2O): > 512 µg/mL
MIC (S. pyogenes ATCC 19615; water additive DMSO): > 512 µg/mL
MIC (S. pyogenes ATCC 19615; water additive EtOH): > 512 µg/mL
MIC (S. cohnii c.i.; H2O): > 512 µg/mL
MIC (S. cohnii c.i.; water additive DMSO): > 512 µg/mL
MIC (S. cohnii c.i.; water additive EtOH): > 512 µg/mL
MIC (E. faecalis c.i.; H2O): > 512 µg/mL
MIC (E. faecalis c.i.; water additive DMSO): > 512 µg/mL
MIC (E. faecalis c.i.; water additive EtOH): > 512 µg/mL
MIC (S. schleiferi c.i.; H2O): 256 µg/mL (≈ 506 µM)
MIC (S. schleiferi c.i.; water additive DMSO): 256 µg/mL (≈ 506 µM)
MIC (S. schleiferi c.i.; water additive EtOH): 256 µg/mL (≈ 506 µM)
MIC (S. agalactiae ATCC 27956; H2O): > 512 µg/mL
MIC (S. agalactiae ATCC 27956; water additive DMSO): > 512 µg/mL
MIC (S. agalactiae ATCC 27956; water additive EtOH): > 512 µg/mL
MBC (S. mutans c.i.; H2O): 512 µg/mL (≈ 1010 µM)
MIC (S. mutans c.i.; H2O): 256 µg/mL (≈ 506 µM)
MBC (S. mutans c.i.; water additive EtOH): 256 µg/mL (≈ 506 µM)
MIC (E. coli ATCC 25922; H2O): > 512 µg/mL
MIC (E. coli ATCC 25922; water additive DMSO): > 512 µg/mL
MIC (E. coli ATCC 25922; water additive EtOH): > 512 µg/mL
MIC (P. vulgaris ATCC 6896; H2O): > 512 µg/mL
MIC (P. vulgaris ATCC 6896; water additive DMSO): > 512 µg/mL
MIC (P. vulgaris ATCC 6896; water additive EtOH): > 512 µg/mL
MIC ([1]; H2O): > 512 µg/mL
MIC ([1]; water additive DMSO): > 512 µg/mL
MIC ([1]; water additive EtOH): > 512 µg/mL
MIC (P. aeruginosa ATCC 10145; H2O): > 512 µg/mL
MIC (P. aeruginosa ATCC 10145; water additive DMSO): > 512 µg/mL
MIC (P. aeruginosa ATCC 10145; water additive EtOH): > 512 µg/mL
% AcCN (acetonitrile required for elution from the column) [2]: 42.5%
cytotoxicity (LDH), in words ([3]; 50-150 μg/mL): no cytotoxicity
concentration at which cytotoxic effect starts ([3]; LDH): > 150 µg/mL
cytotoxicity (LDH), in words (fibroblasts (46BR.1N); 50-150 μg/mL): no cytotoxicity
concentration at which cytotoxic effect starts (fibroblasts (46BR.1N); LDH): > 150 µg/mL
effect on proliferation, in words [4]: did not exert any negative impact
effect on proliferation, in words [5]: did not exert any negative impact
